# Assay results from the supplement of paper PMC10307832.
# Experiments:
# Experiment in all cases: relative viability (nuclei count vs DMSO), 5 days (fraction); higher = more cells survive
# NCI-H727 = system: NCI-H727
# Method in brief: (§1)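 Medians of duplicate plates are given as relative viability. That measure is the nuclei count in treated wells divided by the count in vehicle wells. Counts were taken on 4× images of lung cancer cell lines in 1536-well plates, 5 days after pin-tool dosing the day after seeding with one drug alone or a fixed anchor-drug dose plus five library-drug doses (not always all listed) in √10 steps.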
# EKVX = system: EKVX
# Method in brief: as §1
# BEN = system: BEN
# Method in brief: as §1
# NCI-H2170 = system: NCI-H2170
# Method in brief: as §1
# HCC-827 = system: HCC-827
# Method in brief: as §1
# NCI-H1666 = system: NCI-H1666
# Method in brief: as §1
# LOU-NH91 = system: LOU-NH91
# Method in brief: as §1
# NCI-H1944 = system: NCI-H1944
# Method in brief: as §1
# NCI-H1355 = system: NCI-H1355
# Method in brief: as §1
# HOP-62 = system: HOP-62
# Method in brief: as §1
# NCI-H661 = system: NCI-H661
# Method in brief: as §1
# SK-MES-1 = system: SK-MES-1
# Method in brief: as §1
# LXF-289 = system: LXF-289
# Method in brief: as §1
# PC-14 = system: PC-14
# Method in brief: as §1
# NCI-H647 = system: NCI-H647
# Method in brief: as §1
# NCI-H1993 = system: NCI-H1993
# Method in brief: as §1
# NCI-H2126 = system: NCI-H2126
# Method in brief: as §1
# LK-2 = system: LK-2
# Method in brief: as §1
# RERF-LC-KJ = system: RERF-LC-KJ
# Method in brief: as §1
# NCI-H1437 = system: NCI-H1437
# Method in brief: as §1
compound,measurement,setting,value
CN1CCN(CCOc2cc(OC3CCOCC3)c3c(Nc4c(Cl)ccc5c4OCO5)ncnc3c2)CC1 [Saracatinib] + CS(=O)(=O)CCNCc1ccc(-c2ccc3ncnc(Nc4ccc(OCc5cccc(F)c5)c(Cl)c4)c3c2)o1 [Lapatinib] (partner 2 µM),relative viability,NCI-H727; first compound 0.02 µM,0.688
same,relative viability,NCI-H727; first compound 0.2 µM,0.647
same,relative viability,NCI-H727; first compound 0.6325 µM,0.78
same,relative viability,NCI-H727; first compound 2 µM,0.587
same,relative viability,EKVX; first compound 0.02 µM,0.222
same,relative viability,EKVX; first compound 0.2 µM,0.165
same,relative viability,EKVX; first compound 0.6325 µM,0.238
same,relative viability,EKVX; first compound 2 µM,0.131
same,relative viability,BEN; first compound 0.02 µM,0.745
same,relative viability,BEN; first compound 0.2 µM,0.541
same,relative viability,BEN; first compound 0.6325 µM,0.911
same,relative viability,BEN; first compound 2 µM,0.489
same,relative viability,NCI-H2170; first compound 0.02 µM,0.28
same,relative viability,NCI-H2170; first compound 0.2 µM,0.246
same,relative viability,NCI-H2170; first compound 0.6325 µM,0.293
same,relative viability,NCI-H2170; first compound 2 µM,0.231
same,relative viability,HCC-827; first compound 0.02 µM,0.174
same,relative viability,HCC-827; first compound 0.2 µM,0.202
same,relative viability,HCC-827; first compound 0.6325 µM,0.199
same,relative viability,HCC-827; first compound 2 µM,0.163
same,relative viability,NCI-H1666; first compound 0.02 µM,0.686
same,relative viability,NCI-H1666; first compound 0.2 µM,0.629
same,relative viability,NCI-H1666; first compound 0.6325 µM,0.777
same,relative viability,NCI-H1666; first compound 2 µM,0.872
same,relative viability,LOU-NH91; first compound 0.02 µM,0.824
same,relative viability,LOU-NH91; first compound 0.2 µM,0.713
same,relative viability,LOU-NH91; first compound 0.6325 µM,0.747
same,relative viability,LOU-NH91; first compound 2 µM,0.652
same,relative viability,NCI-H1944; first compound 0.02 µM,0.808
same,relative viability,NCI-H1944; first compound 0.6325 µM,0.872
same,relative viability,NCI-H1944; first compound 2 µM,0.459
same,relative viability,NCI-H1355; first compound 0.02 µM,1.05
same,relative viability,NCI-H1355; first compound 0.2 µM,0.956
same,relative viability,NCI-H1355; first compound 0.6325 µM,1.18
same,relative viability,NCI-H1355; first compound 2 µM,0.894
same,relative viability,HOP-62; first compound 0.02 µM,1.21
same,relative viability,HOP-62; first compound 0.2 µM,0.816
same,relative viability,HOP-62; first compound 0.6325 µM,1.05
same,relative viability,HOP-62; first compound 2 µM,1.21
same,relative viability,NCI-H661; first compound 0.02 µM,0.456
same,relative viability,NCI-H661; first compound 0.2 µM,0.552
same,relative viability,NCI-H661; first compound 0.6325 µM,0.633
same,relative viability,NCI-H661; first compound 2 µM,0.37
same,relative viability,SK-MES-1; first compound 0.02 µM,0.442
same,relative viability,SK-MES-1; first compound 0.2 µM,0.425
same,relative viability,SK-MES-1; first compound 0.6325 µM,0.47
same,relative viability,SK-MES-1; first compound 2 µM,0.41
same,relative viability,LXF-289; first compound 0.02 µM,0.95
same,relative viability,LXF-289; first compound 0.2 µM,0.895
same,relative viability,LXF-289; first compound 0.6325 µM,0.955
same,relative viability,LXF-289; first compound 2 µM,0.901
same,relative viability,PC-14; first compound 0.02 µM,0.334
same,relative viability,PC-14; first compound 0.2 µM,0.26
same,relative viability,PC-14; first compound 0.6325 µM,0.305
same,relative viability,PC-14; first compound 2 µM,0.185
same,relative viability,NCI-H647; first compound 0.02 µM,0.76
same,relative viability,NCI-H647; first compound 0.2 µM,0.803
same,relative viability,NCI-H647; first compound 0.6325 µM,0.894
same,relative viability,NCI-H647; first compound 2 µM,0.48
same,relative viability,NCI-H1993; first compound 0.02 µM,0.864
same,relative viability,NCI-H1993; first compound 0.2 µM,0.737
same,relative viability,NCI-H1993; first compound 2 µM,0.691
same,relative viability,NCI-H2126; first compound 0.02 µM,0.813
same,relative viability,NCI-H2126; first compound 0.2 µM,0.686
same,relative viability,NCI-H2126; first compound 0.6325 µM,0.732
same,relative viability,NCI-H2126; first compound 2 µM,0.626
same,relative viability,LK-2; first compound 0.02 µM,0.95
same,relative viability,LK-2; first compound 0.2 µM,0.715
same,relative viability,LK-2; first compound 0.6325 µM,0.725
same,relative viability,LK-2; first compound 2 µM,0.504
same,relative viability,RERF-LC-KJ; first compound 0.02 µM,0.893
same,relative viability,RERF-LC-KJ; first compound 0.2 µM,0.82
same,relative viability,RERF-LC-KJ; first compound 0.6325 µM,0.881
same,relative viability,RERF-LC-KJ; first compound 2 µM,1.02
same,relative viability,NCI-H1437; first compound 0.02 µM,0.884
same,relative viability,NCI-H1437; first compound 0.2 µM,0.841
same,relative viability,NCI-H1437; first compound 0.6325 µM,0.783
same,relative viability,NCI-H1437; first compound 2 µM,0.757
